Data reported in patent US20160297828A1, “SPIROCYCLIC COMPOUNDS CONTAINING SPIRO[INDOLYL-3,1'-PYRROLO[3,4-C]PYRROLE] CORE AND SULPHUR-CONTAINING AMINO ACID RESIDUES” (priority 2013, published 2016).
Where “and” joins values, the source holds several entries; their conditions need not be identical. Equal values may be shown once.

Tests used:
11β-corticosterone = 11β-corticosterone level in venous blood of rats with bilateral carotid occlusion (ELISA); type: in vivo, Wistar rats; details: for dynamics in percents in relation to control pathology group / dynamics in percents in relation to the group of pseudo-operated animals / 11β-corticosterone level in venous blood: BCO
Procedure: The neuroprotective effect of 3,2′-spiro-pyrrolo-2-oxindole derivative (SI-86 compound) was studied in Wistar rats on a model of cerebrovascular accident (CVA) of ischemic type in archencephalic pool forming bilateral carotid occlusion (BCO) by carotid artery ligation. The ligations for common carotid arteries was imposed under propofol anesthesia at a dose of 60 mg/kg intraperitoneally (ip), using surgical access to the front of the neck cutting through its white line. The chosen model allows to reproduce the clinical pattern of ischemic stroke and is adequate for clinical study of potential neuroprotective substances (Drug discovery and Evaluation: pharmacological assays/H. Gerhard Vogel (ed.).-2nd ed. 1453p.).
The derivative of 3,2′-spiro-pyrrolo-2-oxindole was investigated in conventionally effective dose of 10 mg/kg […] (iv)—dose which is provided maximum antihypoxic activity of SI-86 compound by the results of our previous study. The reference drugs were injected intraperitoneally (ip). BCO was applied to the rats of control pathology and 0.9% NaCI solution was administered as therapy calculated for 2 ml/kg ip.
Pseudo-operated rats were exposed to all interventions (anesthesia, skin incision, dissection of vessels) except arteries ligation that leveled traumatic impact of experimental conditions.
To determine a corticosterone level (species-specific cortisol analogue in rats, which is also a substrate for 11β-HSD1) in the corresponding period (4 th and 21 st CVA day) in rat by sagittal sinus puncture, blood was sampled (0.2-0.4 ml). The cortisol level was measured by ELISA using a CORTICOSTERONEE KIT set (Germany) on the instrument of the company “Hipson” (Czech Republic).

[1] = test system: neuron-specific enolase (NSE); experiment: Neuron-specific enolase (NSE) activity in rats with intracerebral hemorrhage (ELISA); type: in vivo; details: for NSE activity (dynamics of neurodestructive changes): acute cerebral hemorrhage, n = 7; for enzyme activity decreased in relation to the control pathology group: hemorrhage
Procedure: The derivative of 3,2′-spiro-pyrrolo-2-oxindole was investigated in conventionally effective dose of 10 mg/kg […] (iv)—dose that according to the results of our previous studies provided maximum antihypoxic activity of SI-86 compound. Reference drugs were injected intraperitoneally (ip). […] Autoblood was injected to rats with control pathology and 0.9% NaCI solution was administered as therapy calculated for 2 ml/kg ip.
Psevdooperated rats were exposed to all interventions (anesthesia, craniotomy) with the exception of autoblood administration that leveled traumatic impact of experimental conditions.
To determine neuron-specific enolase, the specific marker of cerebral ischemia,—for corresponding period (4 th and 21 st day of CVA) in rats, blood was sampled by sagittal sinus puncture (0.2-0.4 ml). NSE activity was measured by ELISA using a set NSE EIA KIT (DAI, USA) on the instrument of the company “Hipson” (Czech Republic).

[2] = test system: neuron-specific enolase (NSE); experiment: Neuron-specific enolase (NSE) activity in rats with bilateral carotid occlusion (ELISA); type: in vivo; details: BCO; for NSE activity (dynamics of neurodestructive changes): n = 7
Procedure: The derivative of 3,2′-spiro-pyrrolo-2-oxindole was studied in conventionally effective dose of 10 mg/kg […] (iv)—dose that by the results of our previous study provided maximum antihypoxic activity of the SI-86compound. Reference drugs were injected intraperitoneally (ip). […] BCO was made to rats of control pathology and as therapy 0.9% NaCI solution was administered calculated for 2 ml/kg ip.
Pseudooperative rats were exposed to all interventions (anesthesia, skin incision, dissection of vessels) except arteries ligation that leveled traumatic effect of experimental conditions.
To determine neurospecific enolase, specific marker of cerebral ischemia,—to the period (4 th and 21 st day of CVA) in rat's blood was sampled by sagittal sinus puncture (0.2-0.4 ml). NSE activity was measured by ELISA using a set NSE EIA KIT (DAI, USA) on the instrument of the company “Hipson” (Czech Republic).

[3] = test system: rats with intracerebral hemorrhage; experiment: Conditioned response of passive avoidance (CRPA) in rats with intracerebral hemorrhage; type: in vivo; details: 21st day, n = 15; for Latent period for entrance into dark compartment, prior study: SI-86 10 mg/kg iv, mexydol 100, citocoline 250, actovegin 16, pyracetam 400 mg/kg ip
Procedure: (§1) Neuroprotective effect of 3,2′-spiro-pyrrolo-2-oxindole derivative (SI-86 compound) was studied on IUD model of moderate severity modeled under propofol anesthesia (60 mg/kg intraperitoneally (ip)) by autoblood administration into the brain internal capsule (stereotactic coordinates of the projection: H=7.0 mm, L=3.0 mm, A=1.5 mm from bregma) ([…]) (Method for reproduction of intracerebral hemorrhage in rats/O. K. Yarosh, S. V. Kyrychenko, S. P. Halimonchyk [et al.]//Circulation and hemostasis.-2005.-No. 1.-P. 77-81). The chosen model allows to reproduce clinical pattern of […] and is adequate for clinical study of potential neuroprotective agents.
(§2) As comparators the following drugs were used: mexydol (“Mexydol” UC Pharmasoft, Russia), 100 mg/kg; citicoline (“Somazina” Ferrer International, SA, Spain), 250 mg/kg; aktovegin (“Aktovegin”, Nycomed, Austria), 16 mg/kg pyracetam (“Pyracetam” Darnitsa, Ukraine), 400 mg/kg. According to the latest clinical guidelines regarding the treatment of patients with CVA approved by the Ministry of Health of Ukraine (Order No. 602 dated 3 Aug. 2012), all these drugs are allowed to be included into schemes for intensive patients therapy with CVA as neuroprotective agents. They were used at recommended doses for preclinical studies (McGrow C. P. Experimental Cerebral Infarction Effects of Pentobarbital in Mongolian Gerbils/C. P. McGrow//Arch. Neurol.-1977.-Vol. 34, No. 6.-P. 334-336). Experimental therapy of acute cerebral ischemia with SI-86 compound and comparator started 1 hour after IUD once a day for 21 days. The SI-86 derivative was investigated in conventionally effective dose of 10 mg/kg […] (iv)-dose that according to the results of our previous study provides maximum antihypoxic activity of SI-86 compound. Reference drugs were injected intraperitoneally (ip). Rats of control pathology group were injected by autoblood and as therapy 0.9% NaCI solution was administered calculated for 2 ml/kg […].
(§3) Evaluation of the ability of animals to learn and memorize of aversive stimulus was examined in the test of conditioned response of passive avoidance (CRPA). The technique is based on innate rat instinct to limited shadowy space. The study in rats was conducted in two-compartment unit consisted of two sections—light and dark. An animal was arranged into light compartment, fixing latency time for entering into the dark compartment, wherein rat received current irritation and ran in the light compartment. CRPA retention was tested every other day under latency time change of rat entering into the dark compartment. Also the number of animals was noted not fully entered the dark chamber. Cerebroprotective efficiency criteria of studied compounds were also animal death term (days) and their mortality rate (in %).

[4] = test system: rats with intracerebral hemorrhage; experiment: Neurological deficit (C. P. McGrow stroke-index scale) in rats with intracerebral hemorrhage; type: in vivo; details: n = 15
Procedure: as §1, §2
Neurological deficit in animals with acute CVA respectively in acute (4th day) and recovery (21 st day) periods was measured on C. P. McGrow stroke-index scale. The state severity was determined by amount of relevant points: to 3 points-mild, 3 to 7 points-average, above 7 points-severe degree. Pareses, paralyses of limbs, tremors, circus movement, ptoses, lateral positions, ability of rats to be maintained at the core of 15 cm diameter, rotating at the rate of 3 rpm were noted. The animals were tested daily by displaying the amount of points:
one-sided semi-ptosis—0.5 points; one-sided ptosis—1 point; tremor—0.5 points; circus movements—0.5 points; pareses of limbs (for each limb)—1 point; paralyses of limbs (for each limb)—2 points; lateral position—3 points; disability to maintain on rotating rod during 4 minutes—3 points.

[5] = test system: rats with intracerebral hemorrhage; experiment: Lethality of rats with intracerebral hemorrhage of average severity; type: in vivo
Procedure: The chosen model allows to reproduce clinical pattern of […] and is adequate for clinical study of potential neuroprotective agents.
As comparators the following drugs were used: mexydol (“Mexydol” UC Pharmasoft, Russia), 100 mg/kg; citicoline (“Somazina” Ferrer International, SA, Spain), 250 mg/kg; aktovegin (“Aktovegin”, Nycomed, Austria), 16 mg/kg pyracetam (“Pyracetam” Darnitsa, Ukraine), 400 mg/kg. According to the latest clinical guidelines regarding the treatment of patients with CVA approved by the Ministry of Health of Ukraine (Order No. 602 dated 3 Aug. 2012), all these drugs are allowed to be included into schemes for intensive patients therapy with CVA as neuroprotective agents. They were used at recommended doses for preclinical studies (McGrow C. P. Experimental Cerebral Infarction Effects of Pentobarbital in Mongolian Gerbils/C. P. McGrow//Arch. Neurol.-1977.-Vol. 34, No. 6.-P. 334-336). Experimental therapy of acute cerebral ischemia with SI-86 compound and comparator started 1 hour after IUD once a day for 21 days. […] Reference drugs were injected intraperitoneally (ip). Rats of control pathology group were injected by autoblood and as therapy 0.9% NaCI solution was administered calculated for 2 ml/kg iv.
Pseudo-operated rats were exposed to all interventions (anesthesia, craniotomy) excluding autoblood administration that leveled traumatic impact of experimental conditions.
as §3
Quantitative data were processed using statistical StatPlus 2009 processing. The statistical significance of differences was assessed by Fisher's angular transformation (lethality outcome), also parametric t Student criterion were used in case of normal distribution of variation series, nonparametric W White criterion—in its absence.

[6] = day 4, SI-86 10 mg/kg iv, citocoline 250 mg/kg ip
[7] = day 4, SI-86 10 mg/kg iv, mexydol 100, citocoline 250, actovegin 16, pyracetam 400 mg/kg ip
[8] = 12 h, SI-86 10 mg/kg iv, mexydol 100, citocoline 250, actovegin 16, pyracetam 400 mg/kg

## C[N+](C)(C)CCOP(=O)(O)OP(=O)([O-])OC[C@H]1O[C@@H](n2ccc(N)nc2=O)[C@H](O)[C@@H]1O [citocoline, reference compound]
11β-corticosterone; day 4
  dynamics in percents in relation to control pathology group: [−41.7%]
  dynamics in percents in relation to the group of pseudo-operated animals: (+126.9%)
11β-corticosterone; [6]
  11β-corticosterone level in venous blood: 272.79 ± 1.95°* ng/ml
11β-corticosterone; day 21
  dynamics in percents in relation to control pathology group: [−30.2%]
  dynamics in percents in relation to the group of pseudo-operated animals: (+152.7%)
11β-corticosterone; day 21, same doses
  11β-corticosterone level in venous blood: 235.52 ± 7.82°*^• ng/ml
11β-corticosterone; after 96 hours
  corticosterone concentration in sagittal sinus blood decreased in relation to the control pathology group: 41.7%
11β-corticosterone; after 21 days
  corticosterone concentration in sagittal sinus blood decreased in relation to the control pathology group: 30.2%
[1]; [6]
  NSE activity (dynamics of neurodestructive changes): 1.292 ± 0.069
[1]; day 21, same doses
  NSE activity (dynamics of neurodestructive changes): 0.309 ± 0.05
[1]; 96 hours
  enzyme activity decreased in relation to the control pathology group: 2.2 times
[1]; 21 days
  enzyme activity decreased in relation to the control pathology group: 3.1 times
[2]; 96 hours
  enzyme activity decreased in relation to the control pathology group: 1.27 times
[2]; 21 days
  enzyme activity decreased in relation to the control pathology group: 2.03 times
[2]; [6]
  NSE activity (dynamics of neurodestructive changes): 0.972 ± 0.010
[2]; day 21, same doses
  NSE activity (dynamics of neurodestructive changes): 0.385 ± 0.010
[3]
  Latent period for entrance into dark compartment, prior study: 12.50 ± 0.75°*^# s
[4]; [7]
  neurological deficit, average point under C. P. McGrow scale: 5.0 points and 5.00 ± 0.18°*^#$ points
[4]; day 21, same doses
  neurological deficit, average point under C. P. McGrow scale: 3.1 points and 3.10 ± 0.15°*^#&$ points

## NC(=O)CN1CCCC1=O [pyracetam]
[5]; [8]
  Lethality, %: 4.9%
  Lethality, abs.: 2
[5]; 24 h, same doses
  Lethality, %: 14.6%
  Lethality, abs.: 6
[5]; 48 h, same doses
  Lethality, %: 22%
  Lethality, abs.: 9
[5]; 72 h, same doses
  Lethality, %: 24.4%
  Lethality, abs.: 10
[5]; 96 h, same doses
  Lethality, %: 27.5%
  Lethality, abs.: 11
[5]; within 4 days of therapy, same doses
  reduction of mortality in rats at the end of the observation period relative to control: no significant impact
[3]
  Latent period for entrance into dark compartment, prior study: 15.90 ± 0.51°* s
[3]; same doses
  Latent period for entrance into dark compartment, 24 hours after study: 71.10 ± 2.21 s
[4]; [7]
  neurological deficit, average point under C. P. McGrow scale: 6.90 ± 0.39° points
[4]; day 21, same doses
  neurological deficit, average point under C. P. McGrow scale: 4.1 points and 4.10 ± 0.15°* points
